Assay results published in patent US20240182460A1, “ALLOSTERIC CHROMENONE INHIBITORS OF PHOSPHOINOSITIDE 3-KINASE (PI3K) FOR THE TREATMENT OF DISEASE” (PETRA PHARMA CORPORATION, priority 2022, published 2024).

Legend:
PI3Kα H1047R = molecular target: T1, PI3Kα H1047R (Homo sapiens, UniProt P42336, H1047R); assay: PI3Kα H1047R mutant in vitro cell based assay, MDA-MB-453 cells (AlphaLisa SureFire); settings: MDA-MB-453 cell line, 0% FBS, 3 hours treatment
T1 construct: The MDA-MB-453 (ATCC-HTB-131) cell line (PI3Kα H1047R); host or cells: MDA-MB-453
T1 sequence (P42336 whole entry H1047R): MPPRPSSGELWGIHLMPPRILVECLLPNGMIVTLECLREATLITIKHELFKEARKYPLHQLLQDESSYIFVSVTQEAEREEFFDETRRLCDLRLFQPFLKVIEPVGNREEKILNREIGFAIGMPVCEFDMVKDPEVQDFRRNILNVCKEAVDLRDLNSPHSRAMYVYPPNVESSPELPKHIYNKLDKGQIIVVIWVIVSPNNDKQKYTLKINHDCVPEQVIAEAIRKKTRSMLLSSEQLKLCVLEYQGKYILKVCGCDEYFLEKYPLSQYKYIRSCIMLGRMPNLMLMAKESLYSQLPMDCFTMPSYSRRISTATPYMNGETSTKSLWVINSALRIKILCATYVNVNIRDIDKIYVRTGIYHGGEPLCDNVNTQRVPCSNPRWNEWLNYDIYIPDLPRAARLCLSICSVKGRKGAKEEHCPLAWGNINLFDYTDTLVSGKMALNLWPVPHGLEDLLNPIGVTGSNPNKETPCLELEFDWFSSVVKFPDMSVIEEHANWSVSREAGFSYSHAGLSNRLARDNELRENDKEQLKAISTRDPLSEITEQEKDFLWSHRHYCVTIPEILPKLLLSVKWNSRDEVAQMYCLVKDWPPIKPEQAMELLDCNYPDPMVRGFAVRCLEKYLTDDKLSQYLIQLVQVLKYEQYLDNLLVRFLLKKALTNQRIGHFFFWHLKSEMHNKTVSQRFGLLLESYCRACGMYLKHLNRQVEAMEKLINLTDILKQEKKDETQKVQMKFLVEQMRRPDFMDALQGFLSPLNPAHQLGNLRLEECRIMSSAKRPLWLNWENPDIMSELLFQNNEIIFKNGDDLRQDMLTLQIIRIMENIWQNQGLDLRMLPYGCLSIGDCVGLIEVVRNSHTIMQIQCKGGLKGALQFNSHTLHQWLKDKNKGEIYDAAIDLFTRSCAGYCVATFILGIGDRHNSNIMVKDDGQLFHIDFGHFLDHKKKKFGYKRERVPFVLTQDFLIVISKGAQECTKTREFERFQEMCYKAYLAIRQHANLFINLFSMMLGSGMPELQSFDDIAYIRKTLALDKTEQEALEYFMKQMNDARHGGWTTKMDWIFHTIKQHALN
T1 sequence (P27986 whole entry partner): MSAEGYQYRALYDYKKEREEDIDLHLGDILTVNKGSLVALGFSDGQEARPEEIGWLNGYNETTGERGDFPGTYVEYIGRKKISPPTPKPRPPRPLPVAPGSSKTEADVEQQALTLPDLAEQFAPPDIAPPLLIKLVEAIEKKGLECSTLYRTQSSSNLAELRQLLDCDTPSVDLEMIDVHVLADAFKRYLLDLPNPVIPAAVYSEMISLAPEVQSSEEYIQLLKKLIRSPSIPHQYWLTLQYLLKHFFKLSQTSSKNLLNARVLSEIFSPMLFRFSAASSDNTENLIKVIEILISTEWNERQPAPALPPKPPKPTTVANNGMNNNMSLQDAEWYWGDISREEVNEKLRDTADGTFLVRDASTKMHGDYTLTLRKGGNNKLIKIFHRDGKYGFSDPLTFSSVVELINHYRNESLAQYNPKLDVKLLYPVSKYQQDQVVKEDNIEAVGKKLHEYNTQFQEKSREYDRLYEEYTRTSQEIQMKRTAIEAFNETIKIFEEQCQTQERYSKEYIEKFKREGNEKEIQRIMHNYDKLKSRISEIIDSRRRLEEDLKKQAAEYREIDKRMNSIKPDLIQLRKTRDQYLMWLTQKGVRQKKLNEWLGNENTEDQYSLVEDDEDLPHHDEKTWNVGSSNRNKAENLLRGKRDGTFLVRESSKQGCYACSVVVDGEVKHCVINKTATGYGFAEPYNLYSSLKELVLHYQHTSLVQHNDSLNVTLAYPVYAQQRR
Excerpt: PI3K-Alpha Kinase (PI3Kα) Activity: Wild-Type PI3Kα, H1047R Mutant PI3Kα, and E545K Mutant PI3Kα In Vitro Cell Based Assays and Determination of IC50 Values for Inhibitors
The MDA-MB-453 (ATCC-HTB-131) cell line (PI3Kα H1047R) and MCF-7 (ATCC-HTB-22) cell line (PI3Kα E545K), MDA-MB-361 (ATCC-HTB-27) cell line (PI3Kα E545K), and SKBR3 (ATCC-HTB-30) cell line (wild type PI3Kα) were obtained from the American Type Culture Collection (Manassas, VA). MDA-MB-453 cells were maintained in Dulbecco's Modified Eagle Media (DMEM, Gibco 12430) supplemented with 10% Fetal Bovine Serum, heat inactivated (FBS HI, Gibco 10082), 1× non-essential amino acids (NEAA, Gibco 11140), 1 mM sodium pyruvate (Gibco 11360) and 1× Anti-Anti (Gibco 15240). MCF-7 cells were maintained in Minimum Essential Media (MEM) (Gibco 11095) supplemented with 10% Fetal Bovine Serum, heat inactivated (FBS HI, Gibco 10082), 1× non-essential amino acids (NEAA, Gibco 11140), 1 mM sodium pyruvate (Gibco 11360), 1× Anti-Anti (Gibco 15240) and 10 μg/mL human insulin (Sigma I 9278). MDA-MB-361 cells were maintained in Dulbecco's Modified Eagle Media (DMEM, Gibco 12430) supplemented with 20% Fetal Bovine Serum, heat inactivated (FBS HI, Gibco 10082), 1× non-essential amino acids (NEAA, Gibco 11140), 1 mM sodium pyruvate (Gibco 11360) and 1× Anti-Anti (Gibco 15240). SKBR3 cells were maintained in McCoy's 5A (Gibco 16600) supplemented with 10% Fetal Bovine Serum, heat inactivated (FBS HI, Gibco 10082), and 1× Anti-Anti (Gibco 15240). Cultures were maintained in a humidified incubator at 37° C. under 5% CO2/95% air.
For compound testing in 0% FBS, MDA-MB-453, MCF-7 and SKBR3 cells were seeded at a density of 1.5×10^4, 1.0×10^4, and 1.0×10^4 cells, respectively, per well in white 384-well plates in 20 μl of Minimum Essential Media (MEM) assay media with 1×NEAA, 1 mM sodium pyruvate, and 1 μg/mL human insulin (Sigma 19278) (Assay Medium); while MDA-MB-361 cells were seeded at a density of 1.5×10^4 per well in white 384-well plates in 20 μl Assay Medium without insulin. After plating, cells were allowed to attach overnight. Compounds dissolved in 10 mM stock solutions in DMSO were serially diluted 1:3 in DMSO to generate a 10-point dilution series and plated using an acoustic liquid handler system (Echo 550 Series Liquid Handler, Labcyte). A 5× intermediate compound dilution plate in MEM with 1×NEAA and 1 mM sodium pyruvate (150 μM starting compound concentration in 1.5% DMSO) was then prepared. Five μl of the intermediate serially diluted compounds were added to the cell plate to final concentrations ranging from […] in 0.3% DMSO. 0.3% DMSO alone was used to establish the maximum (MAX) signal and GDC-0032 at a final concentration of 1 μM was used as a reference compound for the minimum (MIN) signal. After 3 hours treatment, the medium was removed, and the cells were lysed in 10 μL of 1× SureFire Lysis buffer with shaking for 10 minutes at room temperature. The Acceptor Mix (Reaction Buffer 1+Reaction Buffer 2+Activation Buffer+SureFire Ultra Acceptor Beads) was prepared by diluting Activation buffer 25-fold in combined Reaction Buffer 1 and Reaction Buffer 2.
The Acceptor beads were diluted 50-fold in the combined Reaction Buffers. Five μL of Acceptor Mix was added to each well, the plate was sealed and covered with foil and incubated for 1 hour at room temperature. The Donor Mix (dilution buffer+SureFire Ultra Donor Beads) was prepared by diluting Donor Beads 50-fold in dilution buffer. Five μL of the Donor Mix was added to each well and the plate sealed and covered with foil and incubated for 1-2 hours at room temperature in the dark. The plates were read on a Neo2 plate reader instrument from Biotek using standard AlphaLisa settings.
Compounds were tested in duplicate and the % inhibition at each compound concentration was used to generate two dose response curves. One IC50 was generated using average % inhibition at each compound concentration. […]

PI3Kα E545K = PI3Kα E545K (Homo sapiens, UniProt P42336, E545K); assay: PI3Kα E545K mutant in vitro cell based assay, MDA-MB-361 cells; set-up: MDA-MB-361 (ATCC-HTB-27) cell line (PI3Kα E545K); host or cells: MDA-MB-361; settings: MDA-MB-361 cell line, 0% FBS, no insulin, 3 hours treatment
Chain of PI3Kα E545K (P42336 whole entry E545K): as the sequence (P42336 whole entry H1047R) above, with E545K, R1047H counted along it
Chain of PI3Kα E545K (P27986 whole entry partner): as the sequence (P27986 whole entry partner) above
Summary of the method: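 Compound exposure lasted 3 hours, in duplicate 10-point 1:3 dilutions at 0.3% DMSO final, on overnight-attached MDA-MB-361 cells carrying PI3Kα E545K in insulin-free, 0% FBS MEM. Lysates read by SureFire AlphaLISA. Relative IC50 from 4-parameter logistic fit versus DMSO and 1 μM GDC-0032 controls.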

## Cc1cc([C@@H](C)Oc2ccc(Cl)nc2C(N)=O)c2oc(-c3ccc4ncsc4c3)c(C)c(=O)c2c1 [Example 12B, 3-[(1R)-1-[2-(1,3-Benzothiazol-6-yl)-3,6-dimethyl-4-oxo-chromen-8-yl]ethoxy]-6-chloro-pyridine-2-carboxamide]
PI3Kα H1047R
  IC50: < 0.1 µM
PI3Kα E545K
  IC50: < 0.5 µM

## Cc1cc([C@@H](C)Oc2ccc(Cl)nc2C(N)=O)c2oc(-c3ccc4c(cnn4C)c3)c(C)c(=O)c2c1 [Example 40C, 6-Chloro-3-[(1R)-1-[3,6-dimethyl-2-(1-methylindazol-5-yl)-4-oxo-chromen-8-yl]ethoxy]pyridine-2-carboxamide]
PI3Kα H1047R
  IC50: < 0.1 µM
PI3Kα E545K
  IC50: < 0.5 µM

## Cc1cc([C@@H](C)Oc2ccc(Cl)nc2S(N)(=O)=O)c2oc(-c3cnn(CCS(C)(=O)=O)c3)c(C)c(=O)c2c1 [Example 90C, 6-Chloro-3-[(1R)-1-[3,6-dimethyl-2-[1-(2-methylsulfonylethyl)pyrazol-4-yl]-4-oxo-chromen-8-yl]ethoxy]pyridine-2-sulfonamide]
PI3Kα H1047R
  IC50: < 0.1 µM
PI3Kα E545K
  IC50: < 0.5 µM

## Cc1cc([C@@H](C)Oc2ccc(Cl)nc2C(N)=O)c2oc(-c3cnn4c3CCC4)c(C)c(=O)c2c1 [Example 123A, 6-Chloro-3-[(1R)-1-[2-(5,6-dihydro-4H-pyrrolo[2,1-e]pyrazol-3-yl)-3,6-dimethyl-4-oxo-chromen-8-yl]ethoxy]pyridine-2-carboxamide]
PI3Kα H1047R
  IC50: < 0.1 µM
PI3Kα E545K
  IC50: < 0.5 µM

## CONC(=O)c1nc(Cl)ccc1O[C@H](C)c1cc(C)cc2c(=O)c(C)c(-c3ccc4nc(C)sc4c3)oc12 [Example 69C, 6-Chloro-3-[(1R)-1-[3,6-dimethyl-2-(2-methyl-1,3-benzothiazol-6-yl)-4-oxo-chromen-8-yl]ethoxy]-N-methoxy-pyridine-2-carboxamide]
PI3Kα H1047R
  IC50: < 0.1 µM
PI3Kα E545K
  IC50: < 0.5 µM

## Cc1cc([C@@H](C)Oc2ccc(Cl)nc2C(N)=O)c2oc(-c3ccc4nn(CF)cc4c3)c(C)c(=O)c2c1 [Example 66C, 6-Chloro-3-[(1R)-1-[2-[2-(fluoromethyl)indazol-5-yl]-3,6-dimethyl-4-oxo-chromen-8-yl]ethoxy]pyridine-2-carboxamide]
PI3Kα H1047R
  IC50: < 0.1 µM
PI3Kα E545K
  IC50: < 0.5 µM

## Cc1cc([C@@H](C)Oc2ccc(Cl)nc2C(N)=O)c2oc(-c3ccc4nc(C)cn4c3)c(C)c(=O)c2c1 [Example 57A, 6-Chloro-3-[(1R)-1-[3,6-dimethyl-2-(2-methylimidazo[1,2-a]pyridin-6-yl)-4-oxo-chromen-8-yl]ethoxy]pyridine-2-carboxamide]
PI3Kα H1047R
  IC50: < 0.1 µM
PI3Kα E545K
  IC50: < 0.5 µM

## Cc1cc([C@@H](C)Oc2ccc(Cl)nc2C(N)=O)c2oc(-c3cnn4c3OCC4)c(C)c(=O)c2c1 [Example 36C, 6-Chloro-3-[(1R)-1-[2-(2,3-dihydropyrazolo[5,1-b]oxazol-7-yl)-3,6-dimethyl-4-oxo-chromen-8-yl]ethoxy]pyridine-2-carboxamide]
PI3Kα H1047R
  IC50: < 0.1 µM
PI3Kα E545K
  IC50: < 0.5 µM

## Cc1cc([C@@H](C)Oc2ccc(Cl)nc2C(N)=O)c2oc(-c3ccc4nc(C)oc4c3)c(C)c(=O)c2c1 [Example 53C, 6-Chloro-3-[(1R)-1-[3,6-dimethyl-2-(2-methyl-1,3-benzoxazol-6-yl)-4-oxo-chromen-8-yl]ethoxy]pyridine-2-carboxamide]
PI3Kα H1047R
  IC50: < 0.1 µM
PI3Kα E545K
  IC50: < 0.5 µM

## CONC(=O)c1c(O[C@H](C)c2cc(C)cc3c(=O)c(C)c(-c4ccc5nn(C)cc5c4)oc23)ccc(F)c1F [Example 37A, 6-[(1R)-1-[3,6-Dimethyl-2-(2-methylindazol-5-yl)-4-oxo-chromen-8-yl]ethoxy]-2,3-difluoro-N-methoxy-benzamide]
PI3Kα H1047R
  IC50: < 0.1 µM
PI3Kα E545K
  IC50: < 0.5 µM

## Cc1cc([C@@H](C)Oc2ccc(Cl)nc2S(N)(=O)=O)c2oc(-c3cnn4c3OCC4)c(C)c(=O)c2c1 [Example 85C, 6-Chloro-3-[(1R)-1-[2-(2,3-dihydropyrazolo[5,1-b]oxazol-7-yl)-3,6-dimethyl-4-oxo-chromen-8-yl]ethoxy]pyridine-2-sulfonamide]
PI3Kα H1047R
  IC50: < 0.1 µM
PI3Kα E545K
  IC50: < 0.5 µM

## Cc1cc([C@@H](C)Oc2ccc(Cl)nc2S(N)(=O)=O)c2oc(-c3cnn(CCO)c3)c(C)c(=O)c2c1 [Example 61A, 6-Chloro-3-[(1R)-1-[2-[1-(2-hydroxyethyl)pyrazol-4-yl]-3,6-dimethyl-4-oxo-chromen-8-yl]ethoxy]pyridine-2-sulfonamide]
PI3Kα H1047R
  IC50: < 0.1 µM
PI3Kα E545K
  IC50: < 0.5 µM

## Cc1cc([C@@H](C)Oc2ccc(Cl)nc2C(N)=O)c2oc(-c3cc(F)c4nc(C)cn4c3)c(C)c(=O)c2c1 [Example 38C]
PI3Kα H1047R
  IC50: < 0.1 µM
PI3Kα E545K
  IC50: < 0.5 µM

## Cc1cc([C@@H](C)Oc2ccc(Cl)nc2-c2noc(=O)[nH]2)c2oc(-c3cnc4c(c3)OCCN4C)c(C)c(=O)c2c1 [Example 49A, 3-[6-Chloro-3-[(1R)-1-[3,6-dimethyl-2-(4-methyl-2,3-dihydropyrido[3,2-b][1,4]oxazin-7-yl)-4-oxo-chromen-8-yl]ethoxy]-2-pyridyl]-4H-1,2,4-oxadiazol-5-lone]
PI3Kα H1047R
  IC50: < 0.1 µM

## Cc1cc([C@@H](C)Oc2ccc(Cl)nc2C(N)=O)c2oc(-c3cnc(C)s3)c(C)c(=O)c2c1 [Example 63C, 6-Chloro-3-[(1R)-1-[3,6-dimethyl-2-(2-methylthiazol-5-yl)-4-oxo-chromen-8-yl]ethoxy]pyridine-2-carboxamide]
PI3Kα H1047R
  IC50: < 0.1 µM
PI3Kα E545K
  IC50: < 0.5 µM

## Cc1cc([C@@H](C)Oc2ccc(Cl)nc2C(N)=O)c2oc(-c3cnn4c3OCC4(C)C)c(C)c(=O)c2c1 [Example 65C, 6-Chloro-3-[(1R)-1-[2-(3,3-dimethyl-2H-pyrazolo[5,1-b]oxazol-7-yl)-3,6-dimethyl-4-oxo-chromen-8-yl]ethoxy]pyridine-2-carboxamide]
PI3Kα H1047R
  IC50: < 0.1 µM
PI3Kα E545K
  IC50: < 0.5 µM

## CCS(=O)(=O)c1ccc(-c2oc3c([C@@H](C)Oc4ccc(Cl)nc4S(N)(=O)=O)cc(C)cc3c(=O)c2C)cc1 [Example 33C, 6-Chloro-3-[(1R)-1-[2-(4-ethylsulfonylphenyl)-3,6-dimethyl-4-oxo-chromen-8-yl]ethoxy]pyridine-2-sulfonamide]
PI3Kα H1047R
  IC50: < 0.1 µM

## Cc1cc([C@@H](C)Oc2ccc(Cl)nc2-c2noc(=O)[nH]2)c2oc(-c3ccc4c(c3)OCCN4C)c(C)c(=O)c2c1 [Example 48A, 3-[6-Chloro-3-[(1R)-1-[3,6-dimethyl-2-(4-methyl-2,3-dihydro-1,4-benzoxazin-7-yl)-4-oxo-chromen-8-yl]ethoxy]-2-pyridyl]-4H-1,2,4-oxadiazol-5-one]
PI3Kα H1047R
  IC50: < 0.1 µM
PI3Kα E545K
  IC50: < 0.5 µM
